Columns and labels:
[1] = target: T1, Phosphatidylinositol 4,5-bisphosphate 3-kinase catalytic subunit delta isoform (Homo sapiens, UniProt O00329); experiment: Inhibition Assay; settings: 25 °C
T1 sequence (O00329 whole entry): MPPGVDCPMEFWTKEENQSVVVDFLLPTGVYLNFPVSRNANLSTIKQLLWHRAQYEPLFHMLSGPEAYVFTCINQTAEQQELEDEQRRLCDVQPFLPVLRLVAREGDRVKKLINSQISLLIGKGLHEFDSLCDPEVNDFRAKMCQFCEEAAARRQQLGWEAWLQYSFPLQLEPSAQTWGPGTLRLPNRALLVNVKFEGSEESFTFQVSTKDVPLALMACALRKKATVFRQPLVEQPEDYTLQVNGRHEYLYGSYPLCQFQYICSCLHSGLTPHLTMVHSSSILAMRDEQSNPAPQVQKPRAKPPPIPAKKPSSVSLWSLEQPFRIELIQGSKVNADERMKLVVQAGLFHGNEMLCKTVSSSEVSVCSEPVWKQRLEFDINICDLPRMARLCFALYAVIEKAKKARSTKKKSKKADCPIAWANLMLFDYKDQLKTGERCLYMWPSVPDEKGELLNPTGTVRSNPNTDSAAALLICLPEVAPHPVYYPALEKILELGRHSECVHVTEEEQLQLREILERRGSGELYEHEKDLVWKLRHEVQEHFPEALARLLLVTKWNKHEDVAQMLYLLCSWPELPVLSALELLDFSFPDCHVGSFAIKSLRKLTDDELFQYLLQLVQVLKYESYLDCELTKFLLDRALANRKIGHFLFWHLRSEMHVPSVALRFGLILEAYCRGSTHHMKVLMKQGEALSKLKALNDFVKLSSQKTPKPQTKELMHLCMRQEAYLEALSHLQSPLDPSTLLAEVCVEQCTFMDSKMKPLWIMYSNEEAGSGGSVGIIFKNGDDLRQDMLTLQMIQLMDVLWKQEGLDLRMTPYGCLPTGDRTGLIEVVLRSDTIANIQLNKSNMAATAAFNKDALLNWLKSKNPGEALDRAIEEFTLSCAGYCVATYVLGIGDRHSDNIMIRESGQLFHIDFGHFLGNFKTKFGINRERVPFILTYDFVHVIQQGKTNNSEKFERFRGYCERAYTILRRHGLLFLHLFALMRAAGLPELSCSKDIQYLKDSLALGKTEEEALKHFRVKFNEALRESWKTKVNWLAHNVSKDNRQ
Method: (§1) The final concentrations of ATP and phosphatidyl inositol in the assay are 5 μM and 6 μg/mL, respectively. […] The final concentrations of ATP and phosphatidyl inositol (PI) in the assay are 1 μM and 10 μg/mL, respectively.

[2] = target: Phosphatidylinositol 4,5-bisphosphate 3-kinase catalytic subunit alpha isoform (Homo sapiens, UniProt P42336); experiment: Inhibition Assay; settings: 25 °C
Sequence of Phosphatidylinositol 4,5-bisphosphate 3-kinase catalytic subunit alpha isoform (P42336 whole entry, canonical isoform): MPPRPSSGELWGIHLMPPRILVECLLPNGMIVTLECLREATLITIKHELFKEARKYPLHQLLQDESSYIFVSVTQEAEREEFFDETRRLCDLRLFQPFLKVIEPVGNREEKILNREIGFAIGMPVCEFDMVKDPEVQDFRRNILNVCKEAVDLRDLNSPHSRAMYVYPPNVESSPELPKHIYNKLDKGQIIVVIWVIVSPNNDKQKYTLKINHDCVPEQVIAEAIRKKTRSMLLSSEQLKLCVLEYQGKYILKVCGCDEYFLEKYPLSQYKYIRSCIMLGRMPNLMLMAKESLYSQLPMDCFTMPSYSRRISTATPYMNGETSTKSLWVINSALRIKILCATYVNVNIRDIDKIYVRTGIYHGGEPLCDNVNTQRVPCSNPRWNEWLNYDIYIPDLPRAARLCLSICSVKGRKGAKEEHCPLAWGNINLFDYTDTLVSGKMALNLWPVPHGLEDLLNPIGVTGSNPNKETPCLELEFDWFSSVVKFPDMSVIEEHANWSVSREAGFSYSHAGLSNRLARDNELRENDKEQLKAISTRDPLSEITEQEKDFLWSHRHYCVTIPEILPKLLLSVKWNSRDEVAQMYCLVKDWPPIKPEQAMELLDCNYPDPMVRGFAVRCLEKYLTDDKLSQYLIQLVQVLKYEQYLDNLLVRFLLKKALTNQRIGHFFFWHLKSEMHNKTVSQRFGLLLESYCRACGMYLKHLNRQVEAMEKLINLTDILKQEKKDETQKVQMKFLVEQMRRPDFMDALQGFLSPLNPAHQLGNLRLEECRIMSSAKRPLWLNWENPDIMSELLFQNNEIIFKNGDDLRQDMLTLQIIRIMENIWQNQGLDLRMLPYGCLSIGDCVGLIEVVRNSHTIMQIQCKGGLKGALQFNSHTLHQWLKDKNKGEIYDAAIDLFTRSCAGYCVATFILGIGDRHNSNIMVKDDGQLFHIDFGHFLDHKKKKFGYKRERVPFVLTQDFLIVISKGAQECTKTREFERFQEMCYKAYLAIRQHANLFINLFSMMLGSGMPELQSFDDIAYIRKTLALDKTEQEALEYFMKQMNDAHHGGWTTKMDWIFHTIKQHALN
Method: as §1

COc1ncc(N2CCOc3ccc(O[C@H]4CCN(C(=O)C5COCCO5)C4)cc32)cc1F (some centres not stated) [US9539260, B115]
IC50 [1]: 23 nM | IC50 [2]: 468 nM
